Results reported in US20250051338A1, “TYK2 DEGRADERS AND USES THEREOF” (Kymera Therapeutics, Inc., priority 2021, published 2025).

How the values were obtained:
Format in all cases: cell-based
TYK2 [1] = target: T1, TYK2 (Homo sapiens, UniProt P29597); assay: TYK2 degradation MSD assay in human PBMC cells; parameters: endogenous in cells; host or cells: human PBMC; settings: 4 to 24 hours incubation, read-out: TYK2 MSD DC50 rating in human PBMC
Method in brief: (§1)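 DC50 values reflect dose-dependent decrease of TYK2 protein, read by MSD after cells were exposed to compound (top 1 to 10 μM, 1:3, 9 doses) for 4 to 24 hours at 37° C.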

TYK2 [2] = target: T1, TYK2; assay: TYK2 degradation MSD assay in EBV-B cells; parameters: endogenous in cells; host or cells: EBV-B cells; settings: 4 to 24 hours incubation, read-out: TYK2 MSD DC50 rating in EBV-B
Method in brief: as §1

TYK2 [3] = target: T1, TYK2; assay: TYK2 degradation MSD assay in OCI-LY10 cells; parameters: endogenous in cells; host or cells: EBV-B cells; settings: 4 to 24 hours incubation, read-out: TYK2 MSD DC50 rating in OCI-LY10
Method in brief: as §1

T1 sequence (P29597 whole entry): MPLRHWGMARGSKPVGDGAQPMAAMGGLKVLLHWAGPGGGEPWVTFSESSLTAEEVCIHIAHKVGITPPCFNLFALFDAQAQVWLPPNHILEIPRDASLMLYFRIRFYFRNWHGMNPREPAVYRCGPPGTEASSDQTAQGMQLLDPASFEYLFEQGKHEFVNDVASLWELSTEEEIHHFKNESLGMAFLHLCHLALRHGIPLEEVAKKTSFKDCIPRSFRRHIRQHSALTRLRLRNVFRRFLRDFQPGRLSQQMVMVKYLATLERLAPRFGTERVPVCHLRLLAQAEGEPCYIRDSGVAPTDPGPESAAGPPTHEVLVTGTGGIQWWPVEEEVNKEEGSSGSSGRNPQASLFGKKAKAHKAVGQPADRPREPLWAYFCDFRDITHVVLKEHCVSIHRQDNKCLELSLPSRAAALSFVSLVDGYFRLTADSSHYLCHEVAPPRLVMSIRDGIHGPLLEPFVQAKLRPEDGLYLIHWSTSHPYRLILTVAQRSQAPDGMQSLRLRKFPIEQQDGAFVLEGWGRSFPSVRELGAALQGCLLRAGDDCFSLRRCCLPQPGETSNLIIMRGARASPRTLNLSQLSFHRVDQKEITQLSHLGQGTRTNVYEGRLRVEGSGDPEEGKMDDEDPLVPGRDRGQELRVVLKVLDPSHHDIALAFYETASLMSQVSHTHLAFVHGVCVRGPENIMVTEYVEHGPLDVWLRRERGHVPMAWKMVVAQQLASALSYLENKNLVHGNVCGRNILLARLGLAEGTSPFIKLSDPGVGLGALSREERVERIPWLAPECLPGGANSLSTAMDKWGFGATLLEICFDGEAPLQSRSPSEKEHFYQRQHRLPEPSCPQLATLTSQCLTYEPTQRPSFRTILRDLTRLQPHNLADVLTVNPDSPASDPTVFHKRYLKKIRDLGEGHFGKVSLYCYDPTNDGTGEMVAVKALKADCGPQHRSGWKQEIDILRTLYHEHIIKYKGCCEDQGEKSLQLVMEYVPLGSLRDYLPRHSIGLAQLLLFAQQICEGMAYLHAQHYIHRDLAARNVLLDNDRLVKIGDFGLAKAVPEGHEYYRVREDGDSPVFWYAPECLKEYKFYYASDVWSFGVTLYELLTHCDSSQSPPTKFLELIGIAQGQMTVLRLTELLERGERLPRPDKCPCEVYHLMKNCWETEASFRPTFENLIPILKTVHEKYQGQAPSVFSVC

Structure (SMILES)	DC50 (TYK2 [1]) [nM]	DC50 (TYK2 [2]) [nM]	DC50 (TYK2 [3]) [nM]
CNc1cc(Nc2cccn(-c3cccc(C(=O)NCCOCCOCCOCCOCCOCCOCCc4ccc5c(c4)n(C)c(=O)n5C4CCC(=O)NC4=O)c3)c2=O)nn2c(C(=O)N[C@@H]3C[C@@H]3F)cnc12 (stereo partly drawn) [Example K243]	> 100	> 100	> 100
CNc1cc(Nc2cccn(-c3ccc(C(=O)N(C)CCCOC4CCN(c5ccc6c(c5)n(C)c(=O)n6C5CCC(=O)NC5=O)CC4)cn3)c2=O)nn2c(C(=O)N[C@@H]3C[C@@H]3F)cnc12 (stereo partly drawn) [Example K438]	> 100	> 100	1 to 10
CNc1cc(-c2ccc(C(=O)NCCCCCCc3cccc4c3n(C)c(=O)n4C3CCC(=O)NC3=O)cc2)nn2c(C(=O)N[C@@H]3C[C@@H]3F)cnc12 (stereo partly drawn) [Example K300]	> 100	> 100	> 100
CNc1cc(Nc2cccn(-c3ccc(C(=O)N4CCC(OC5CC(c6ccc7c(c6)n(C)c(=O)n7C6CCC(=O)NC6=O)C5)CC4)cn3)c2=O)nn2c(C(=O)N[C@@H]3C[C@@H]3F)cnc12 (stereo partly drawn) [Example K393]	< 1	> 100	> 100
CNc1cc(-c2cnn(C3CN(C(=O)NCCCCCCc4ccc5c(c4)n(C)c(=O)n5C4CCC(=O)NC4=O)C3)c2)nn2c(C(=O)N[C@@H]3C[C@@H]3F)cnc12 (stereo partly drawn) [Example K315]	> 100	> 100	> 100
[2H]C([2H])([2H])NC(=O)c1nnc(Nc2ccc(C(=O)N(C)C3CCN(c4cccc5c4n(C)c(=O)n5C4CCC(=O)NC4=O)CC3)cn2)cc1Nc1cccc(F)c1OC (stereo not drawn) [Example K710]	> 100	< 1	> 100
CNC(=O)c1cnc(NC(=O)NCCCCCCCCc2cccc3c2n(C)c(=O)n3C2CCC(=O)NC2=O)cc1Nc1cccc(-c2ncc(F)cn2)c1OC (stereo not drawn) [Example K184]	1 to 10	> 100	> 100
CNc1cc(Nc2cccn(-c3cc(C(=O)NCCCCCCc4cccc5c4n(C)c(=O)n5C4CCC(=O)NC4=O)ccn3)c2=O)nn2c(C(=O)N[C@@H]3C[C@@H]3F)cnc12 (stereo partly drawn) [Example K230]	1 to 10	> 100	> 100
CNC(=O)c1cnc(Nc2ccc(C(=O)NCCCCCCCCc3cc(N4CCCC(C(=O)Nc5ccc(=O)n(CC(=O)OC)c5)C4)ccn3)cn2)cc1Nc1cccc(-c2ncc(F)cn2)c1OC (stereo not drawn) [Example K598]	> 100	> 100	> 100
CNc1cc(Nc2cccc(-c3ccc(CN4CCN(c5ccc(-c6ccc7c(c6)n(C)c(=O)n7C6CCC(=O)NC6=O)cc5)CC4)cn3)c2OC)nn2c(-c3cn(C(C)C)nn3)cnc12 (stereo not drawn) [Example K630]	> 100	> 100	1 to 10
CNc1cc(-c2cccc(C(=O)NCCCCc3cccc4c3n(C)c(=O)n4C3CCC(=O)NC3=O)c2)nn2c(C(=O)N[C@@H]3C[C@@H]3F)cnc12 (stereo partly drawn) [Example K305]	> 100	> 100	> 100
CNc1cc(Nc2cccn(-c3ccc(C(=O)N4CCC(OCCCc5ccc6c(c5)n(C)c(=O)n6C5CCC(=O)NC5=O)CC4)cn3)c2=O)nn2c(C(=O)N[C@@H]3C[C@@H]3F)cnc12 (stereo partly drawn) [Example K407]	> 100	> 100	< 1
CNc1cc(Nc2cccn(-c3ccc(C(=O)NC4CCC(C(=O)N5CCC6(CN(CC#Cc7ccc8c(c7)n(C)c(=O)n8C7CCC(=O)NC7=O)C6)C5)CC4)cn3)c2=O)nn2c(C(=O)N[C@@H]3C[C@@H]3F)cnc12 (stereo partly drawn) [Example K384]	> 100	> 100	> 100
CNc1cc(-c2ccc(C(=O)NCCCCCCCCc3ccc4c(c3)n(C)c(=O)n4C3CCC(=O)NC3=O)cc2)nn2c(C(=O)N[C@@H]3C[C@@H]3F)cnc12 (stereo partly drawn) [Example K301]	> 100	> 100	> 100
CNc1cc(Nc2cccc(-c3ccc(CN4CCN(C5CCC(c6ccc(-c7ccc8c(c7)n(C)c(=O)n8C7CCC(=O)NC7=O)cc6)CC5)CC4)cn3)c2OC)nn2c(C(=O)N[C@@H]3C[C@@H]3F)cnc12 (stereo partly drawn) [Example K567]	> 100	> 100	< 1
CNc1cc(Nc2cccn(-c3ccc(C(=O)NCCCCCCCCc4cncc(N5CCC[C@H](C(=O)Nc6ccc(=O)n(CC(=O)O)c6)C5)c4)cn3)c2=O)nn2c(C(=O)N[C@@H]3C[C@@H]3F)cnc12 [Example K571]	> 100	> 100	> 100
CNc1cc(Nc2ccccc2C(=O)NCCCCc2cccc3c2n(C)c(=O)n3C2CCC(=O)NC2=O)nn2c(C(=O)N[C@@H]3C[C@@H]3F)cnc12 (stereo partly drawn) [Example K253]	> 100	> 100	> 100
CNc1cc(N2CCc3c(N4CCC(CN5CCN(c6ccc(-c7ccc8c(c7)n(C)c(=O)n8C7CCC(=O)NC7=O)cc6)CC5)CC4)cccc32)nn2c(C(=O)N[C@@H]3C[C@@H]3F)cnc12 (stereo partly drawn) [Example K551]	> 100	1 to 10	> 100

Structure (SMILES)	DC50 (TYK2 [1]) [nM]	DC50 (TYK2 [2]) [nM]	DC50 (TYK2 [3]) [nM]
CNc1cc(Nc2cccn(-c3cccc(C(=O)NCCOCCOCCOCCOCCc4ccc5c(c4)n(C)c(=O)n5C4CCC(=O)NC4=O)c3)c2=O)nn2c(C(=O)N[C@@H]3C[C@@H]3F)cnc12 (stereo partly drawn) [Example K239]	> 100	> 100	> 100
CNc1cc(N2CCc3c(-c4ccc(CN5CCN(c6ccc(-c7cccc8c7n(C)c(=O)n8C7CCC(=O)NC7=O)cc6)CC5)cn4)cccc32)nn2c(C(=O)N[C@@H]3C[C@@H]3F)cnc12 (stereo partly drawn) [Example K494]	> 100	> 100	10 to 100
CNc1cc(Nc2cccn(-c3ccc(CN4CC5(C4)CN(c4ccc(-c6ccc7c(c6)n(C)c(=O)n7C6CCC(=O)NC6=O)cc4)C5)cn3)c2=O)nn2c(C(=O)N[C@@H]3C[C@@H]3F)cnc12 (stereo partly drawn) [Example K519]	> 100	> 100	< 1
CNc1cc(Nc2cccn(-c3ccc(C(=O)N4CCC(CC#Cc5cccc6c5n(C)c(=O)n6C5CCC(=O)NC5=O)CC4)cn3)c2=O)nn2c(C(=O)N[C@@H]3C[C@@H]3F)cnc12 (stereo partly drawn) [Example K331]	< 1	> 100	> 100
CNc1cc(Nc2cccc(N3CCC(CN4CCN(c5ccc(-c6ccc7c(c6)n(C)c(=O)n7C6CCC(=O)NC6=O)cc5)CC4)CC3)c2OC)nn2c(C(=O)N[C@@H]3C[C@@H]3F)cnc12 (stereo partly drawn) [Example K619]	> 100	> 100	1 to 10
CNc1cc(-c2cnn(C3CCN(C(=O)NCCCCCCCCc4cccc5c4n(C)c(=O)n5C4CCC(=O)NC4=O)CC3)c2)nn2c(C(=O)N[C@@H]3C[C@@H]3F)cnc12 (stereo partly drawn) [Example K313]	1 to 10	> 100	> 100
CNc1cc(N2CCc3c(-c4cc(CN5CCN(c6ccc7c(c6)n(C)c(=O)n7C6CCC(=O)NC6=O)CC5)ccn4)cccc32)nn2c(C(=O)NC3CC3F)cnc12 (stereo not drawn) [Example K657]	> 100	> 100	< 1
CNC(=O)c1cnc(Nc2ccc(CN3CCN(c4cccc5c4n(C)c(=O)n5C4CCC(=O)NC4=O)CC3)cn2)cc1Nc1cccc(-c2ncc(F)cn2)c1OC (stereo not drawn) [Example K173]	> 100	< 1	> 100
CNC(=O)c1cnc(Nc2ccc(C(=O)NCCCCc3ccc4c(c3)n(C)c(=O)n4C3CCC(=O)NC3=O)cn2)cc1Nc1cccc(-c2ncc(F)cn2)c1OC (stereo not drawn) [Example K107]	< 1	> 100	> 100
CNc1cc(Nc2cccn(-c3cc(C(=O)NCCCCCCCCc4ccc5c(c4)n(C)c(=O)n5C4CCC(=O)NC4=O)ccn3)c2=O)nn2c(C(=O)N[C@@H]3C[C@@H]3F)cnc12 (stereo partly drawn) [Example K231]	< 1	> 100	> 100
CNC(=O)c1cnc(Nc2ccc(CN3CC(C)(Cc4ccc5c(c4)n(C)c(=O)n5C4CCC(=O)NC4=O)C3)cn2)cc1Nc1cccc(-c2ncc(F)cn2)c1OC (stereo not drawn) [Example K142]	1 to 10	< 1	> 100
CNC(=O)c1cnc(Nc2ccc(CN3CCC(N4CC(c5ccc6c(c5)n(C)c(=O)n6C5CCC(=O)NC5=O)C4)CC3)cn2)cc1Nc1cccc(-c2ncc(F)cn2)c1OC (stereo not drawn) [Example K140]	1 to 10	< 1	> 100
CNc1cc(Nc2cccn(-c3ccc(CN4CCN([C@H]5CC[C@H](c6ccc(-c7ccc8c(c7)n(C)c(=O)n8C7CCC(=O)NC7=O)cc6)CC5)CC4)cn3)c2=O)nn2c(C(=O)N[C@@H]3C[C@@H]3F)cnc12 (stereo partly drawn) [Example K454]	> 100	< 1	< 1
CNC(=O)c1cnc(Nc2ccc(C(=O)NCCCCc3cccc4c3n(C)c(=O)n4C3CCC(=O)NC3=O)cn2)cc1Nc1ccccc1 (stereo not drawn) [Example K192]	1 to 10	> 100	1 to 10
Cn1c(=O)n(C2CCC(=O)NC2=O)c2cccc(C#CC3CCN(Cc4ccc(-c5cccc(Nc6ccc7ncc(C(=O)NC8CC8)n7n6)c5)nc4)CC3)c21 (stereo not drawn) [Example K412]	> 100	> 100	> 100
CNc1cc(Nc2cccc(C(=O)NCCCCCCc3cccc4c3n(C)c(=O)n4C3CCC(=O)NC3=O)c2)nn2c(C(=O)N[C@@H]3C[C@@H]3F)cnc12 (stereo partly drawn) [Example K250]	< 1	> 100	> 100
Cn1c(=O)n(C2CCC(=O)NC2=O)c2cccc(CCCCCCCCNc3cc(Nc4cccn(-c5ccccn5)c4=O)nn4c(C(=O)N[C@@H]5C[C@@H]5F)cnc34)c21 (stereo partly drawn) [Example K209]	> 100	> 100	> 100
